From patent US8741896B2, “Pyrazolopyrimidine derivatives” (Merck Patent GmbH, priority 2009, dated 2014)

Key:
PI3Kα = PI3Kα (Homo sapiens, UniProt P42336); experiment: PI3 kinase inhibition bioassay (PI3Kα); format: biochemical
PI3Kβ = PI3Kβ (Homo sapiens, UniProt P42338); experiment: PI3 kinase inhibition bioassay (PI3Kβ); format: biochemical
PI3Kγ = PI3Kγ (Homo sapiens, UniProt P48736); experiment: PI3 kinase inhibition bioassay (PI3Kγ); format: biochemical
PI3Kδ = PI3Kδ (Homo sapiens, UniProt O00329); experiment: PI3 kinase inhibition bioassay (PI3Kδ); format: biochemical
PI3Kδ, sequence (O00329 whole entry, species assumed): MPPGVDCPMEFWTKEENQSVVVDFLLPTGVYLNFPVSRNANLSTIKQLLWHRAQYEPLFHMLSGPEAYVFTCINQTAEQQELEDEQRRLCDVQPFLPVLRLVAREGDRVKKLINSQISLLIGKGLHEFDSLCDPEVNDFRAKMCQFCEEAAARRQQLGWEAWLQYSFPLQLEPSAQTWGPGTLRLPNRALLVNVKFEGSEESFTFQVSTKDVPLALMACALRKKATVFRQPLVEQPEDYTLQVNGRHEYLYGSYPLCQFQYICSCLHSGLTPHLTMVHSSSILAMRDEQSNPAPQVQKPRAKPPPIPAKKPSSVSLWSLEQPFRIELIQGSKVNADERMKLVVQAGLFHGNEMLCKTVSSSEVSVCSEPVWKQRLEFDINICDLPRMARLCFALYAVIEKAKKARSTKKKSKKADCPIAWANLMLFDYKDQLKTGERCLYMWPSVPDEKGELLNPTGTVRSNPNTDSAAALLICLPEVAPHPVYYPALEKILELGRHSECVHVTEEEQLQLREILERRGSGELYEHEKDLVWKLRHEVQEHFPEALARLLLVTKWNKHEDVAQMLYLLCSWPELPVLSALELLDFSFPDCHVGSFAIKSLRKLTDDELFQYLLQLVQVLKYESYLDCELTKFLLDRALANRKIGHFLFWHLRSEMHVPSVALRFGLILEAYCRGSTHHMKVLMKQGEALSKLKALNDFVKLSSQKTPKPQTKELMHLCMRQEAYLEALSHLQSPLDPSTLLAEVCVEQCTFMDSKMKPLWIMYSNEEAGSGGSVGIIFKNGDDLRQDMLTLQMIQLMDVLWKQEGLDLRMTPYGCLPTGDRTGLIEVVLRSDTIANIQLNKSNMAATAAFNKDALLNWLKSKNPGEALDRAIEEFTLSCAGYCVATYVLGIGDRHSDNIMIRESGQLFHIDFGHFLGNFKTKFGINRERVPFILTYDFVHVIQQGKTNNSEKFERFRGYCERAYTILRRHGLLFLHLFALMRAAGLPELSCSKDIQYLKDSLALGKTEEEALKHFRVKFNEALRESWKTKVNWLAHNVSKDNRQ
PI3Kδ, sequence (P27986 whole entry partner, species assumed): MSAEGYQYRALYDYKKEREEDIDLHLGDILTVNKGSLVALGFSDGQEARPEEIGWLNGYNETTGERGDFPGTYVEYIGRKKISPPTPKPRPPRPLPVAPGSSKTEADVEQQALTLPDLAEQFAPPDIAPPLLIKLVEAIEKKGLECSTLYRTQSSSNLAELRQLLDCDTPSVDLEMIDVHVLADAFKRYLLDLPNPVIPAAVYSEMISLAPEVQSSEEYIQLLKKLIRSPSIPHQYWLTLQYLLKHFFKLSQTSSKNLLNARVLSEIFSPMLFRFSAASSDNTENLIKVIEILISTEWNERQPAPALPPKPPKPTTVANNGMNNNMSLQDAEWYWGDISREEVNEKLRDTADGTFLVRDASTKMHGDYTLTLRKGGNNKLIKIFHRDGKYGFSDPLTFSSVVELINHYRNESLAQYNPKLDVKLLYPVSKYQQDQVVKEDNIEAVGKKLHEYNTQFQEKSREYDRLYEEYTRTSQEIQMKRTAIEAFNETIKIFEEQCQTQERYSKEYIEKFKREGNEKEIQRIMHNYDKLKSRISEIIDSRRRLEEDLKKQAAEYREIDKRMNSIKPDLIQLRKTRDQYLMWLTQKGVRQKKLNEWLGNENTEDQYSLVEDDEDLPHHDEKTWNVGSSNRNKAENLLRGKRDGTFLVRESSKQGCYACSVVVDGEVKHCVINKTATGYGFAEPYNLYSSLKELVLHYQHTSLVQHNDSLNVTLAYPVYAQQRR

CK2 protein kinase = CK2 protein kinase (Homo sapiens, UniProt P68400); settings: cited from earlier work

PI3Kβ, sequence (P42338 whole entry, species assumed): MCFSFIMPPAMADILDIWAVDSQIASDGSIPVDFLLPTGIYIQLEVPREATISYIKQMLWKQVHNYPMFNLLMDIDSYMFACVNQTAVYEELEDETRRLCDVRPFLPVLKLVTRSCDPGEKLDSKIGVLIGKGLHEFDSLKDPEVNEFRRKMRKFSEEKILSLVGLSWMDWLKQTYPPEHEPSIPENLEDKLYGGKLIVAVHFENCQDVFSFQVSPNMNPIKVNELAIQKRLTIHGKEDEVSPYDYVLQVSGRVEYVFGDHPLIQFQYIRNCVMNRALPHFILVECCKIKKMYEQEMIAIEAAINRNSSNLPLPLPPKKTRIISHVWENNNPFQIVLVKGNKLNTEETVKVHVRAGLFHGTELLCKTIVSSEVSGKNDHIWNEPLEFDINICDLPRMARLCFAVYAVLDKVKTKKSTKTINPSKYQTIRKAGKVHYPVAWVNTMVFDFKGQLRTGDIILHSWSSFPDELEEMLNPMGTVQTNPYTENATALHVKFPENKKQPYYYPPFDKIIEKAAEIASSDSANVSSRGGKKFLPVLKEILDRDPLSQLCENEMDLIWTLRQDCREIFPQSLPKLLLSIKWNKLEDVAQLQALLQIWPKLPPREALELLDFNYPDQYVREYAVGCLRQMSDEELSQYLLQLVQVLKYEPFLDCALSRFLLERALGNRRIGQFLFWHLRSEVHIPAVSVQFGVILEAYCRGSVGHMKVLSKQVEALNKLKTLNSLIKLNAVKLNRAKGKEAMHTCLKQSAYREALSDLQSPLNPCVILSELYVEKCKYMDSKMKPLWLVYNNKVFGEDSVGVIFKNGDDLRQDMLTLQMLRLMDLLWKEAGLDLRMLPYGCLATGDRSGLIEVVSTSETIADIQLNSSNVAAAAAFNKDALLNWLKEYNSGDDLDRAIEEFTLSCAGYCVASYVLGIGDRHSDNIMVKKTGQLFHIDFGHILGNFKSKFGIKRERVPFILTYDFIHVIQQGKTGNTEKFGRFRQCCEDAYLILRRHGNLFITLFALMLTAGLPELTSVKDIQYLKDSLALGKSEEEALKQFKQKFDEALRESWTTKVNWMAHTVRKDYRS
PI3Kβ, sequence (P27986 whole entry partner, species assumed): as the sequence (P27986 whole entry partner, species assumed) above
PI3Kγ, sequence (P48736 whole entry, species assumed): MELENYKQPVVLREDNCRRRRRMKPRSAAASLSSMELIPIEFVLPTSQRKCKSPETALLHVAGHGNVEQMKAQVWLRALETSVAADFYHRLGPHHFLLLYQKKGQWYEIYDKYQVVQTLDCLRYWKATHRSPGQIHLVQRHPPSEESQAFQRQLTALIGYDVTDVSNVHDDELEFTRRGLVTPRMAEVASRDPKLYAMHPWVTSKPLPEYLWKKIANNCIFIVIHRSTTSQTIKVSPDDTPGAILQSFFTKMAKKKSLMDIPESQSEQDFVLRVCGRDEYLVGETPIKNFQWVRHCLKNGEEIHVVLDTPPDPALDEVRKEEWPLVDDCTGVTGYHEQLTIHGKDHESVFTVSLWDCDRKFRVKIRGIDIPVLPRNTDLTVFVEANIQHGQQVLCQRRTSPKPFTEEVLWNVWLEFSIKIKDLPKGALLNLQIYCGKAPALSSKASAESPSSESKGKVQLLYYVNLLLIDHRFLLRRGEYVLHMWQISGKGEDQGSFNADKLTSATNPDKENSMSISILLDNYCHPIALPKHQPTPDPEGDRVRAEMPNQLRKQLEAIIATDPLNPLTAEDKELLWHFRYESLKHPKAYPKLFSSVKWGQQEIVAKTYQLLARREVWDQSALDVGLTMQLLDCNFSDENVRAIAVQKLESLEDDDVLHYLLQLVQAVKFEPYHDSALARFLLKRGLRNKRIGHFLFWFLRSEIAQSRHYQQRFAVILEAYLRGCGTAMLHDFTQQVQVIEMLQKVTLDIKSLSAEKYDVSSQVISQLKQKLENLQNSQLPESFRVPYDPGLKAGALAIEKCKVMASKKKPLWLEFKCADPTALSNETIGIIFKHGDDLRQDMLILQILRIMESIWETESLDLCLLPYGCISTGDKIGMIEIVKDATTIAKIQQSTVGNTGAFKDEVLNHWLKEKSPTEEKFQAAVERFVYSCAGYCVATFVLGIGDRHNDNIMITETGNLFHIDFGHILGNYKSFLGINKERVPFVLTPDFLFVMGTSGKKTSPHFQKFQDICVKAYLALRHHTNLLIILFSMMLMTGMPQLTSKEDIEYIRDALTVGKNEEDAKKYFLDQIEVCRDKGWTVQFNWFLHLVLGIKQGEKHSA
PI3Kα, sequence (P42336 whole entry, species assumed): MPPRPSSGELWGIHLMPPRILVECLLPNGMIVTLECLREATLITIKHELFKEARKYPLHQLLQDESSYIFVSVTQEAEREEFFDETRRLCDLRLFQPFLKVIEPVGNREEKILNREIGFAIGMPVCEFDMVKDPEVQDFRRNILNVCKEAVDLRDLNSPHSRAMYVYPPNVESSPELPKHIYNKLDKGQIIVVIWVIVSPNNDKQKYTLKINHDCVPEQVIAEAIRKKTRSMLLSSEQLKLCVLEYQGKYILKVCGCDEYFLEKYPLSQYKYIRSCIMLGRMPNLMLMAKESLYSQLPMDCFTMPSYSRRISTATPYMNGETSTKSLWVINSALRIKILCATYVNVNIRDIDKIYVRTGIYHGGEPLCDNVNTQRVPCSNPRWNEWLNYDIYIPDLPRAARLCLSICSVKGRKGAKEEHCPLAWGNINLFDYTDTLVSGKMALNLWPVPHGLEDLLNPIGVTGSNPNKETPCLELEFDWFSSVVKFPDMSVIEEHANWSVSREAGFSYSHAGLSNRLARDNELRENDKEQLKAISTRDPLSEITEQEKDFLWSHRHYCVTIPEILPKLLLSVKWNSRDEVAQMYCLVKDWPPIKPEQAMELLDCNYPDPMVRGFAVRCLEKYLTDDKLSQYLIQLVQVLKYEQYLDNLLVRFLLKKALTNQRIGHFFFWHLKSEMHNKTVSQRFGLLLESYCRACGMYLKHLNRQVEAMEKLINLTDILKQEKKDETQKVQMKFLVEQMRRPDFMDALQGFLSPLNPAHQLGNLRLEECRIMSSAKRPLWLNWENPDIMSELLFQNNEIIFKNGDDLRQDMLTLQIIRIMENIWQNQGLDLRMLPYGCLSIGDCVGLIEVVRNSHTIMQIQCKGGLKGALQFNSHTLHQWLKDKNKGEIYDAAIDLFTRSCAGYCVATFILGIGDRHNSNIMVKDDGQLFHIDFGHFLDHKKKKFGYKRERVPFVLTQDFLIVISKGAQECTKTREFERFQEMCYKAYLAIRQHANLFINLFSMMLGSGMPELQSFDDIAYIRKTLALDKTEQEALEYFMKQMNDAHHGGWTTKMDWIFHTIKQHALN
PI3Kα, sequence (P27986 whole entry partner, species assumed): as the sequence (P27986 whole entry partner, species assumed) above

IC50 (PI3Kα) [µM] | IC50 (PI3Kβ) [µM] | IC50 (PI3Kγ) [µM] | IC50 (PI3Kδ) [µM] | SMILES | IC50 (CK2 protein kinase) [µM]
0.1 to 10 | 0.1 to 10 | 0.1 to 10 | 0.1 to 10 | Cn1ncc2c(-c3cccc(O)c3)nc(N3CCOCC3)nc21 [Compound A1, 3-(1-methyl-6-morpholin-4-yl-1H-pyrazolo[3,4-d]pyrimidin-4-yl)phenol] | 
0.1 to 10 | 0.1 to 10 | > 10 | 0.1 to 10 | Cn1ncc2c(-c3cccc4[nH]ccc34)nc(N3CCOCC3)nc21 [Compound A97, 4-(1H-indol-4-yl)-1-methyl-6-morpholin-4-yl-1H-pyrazolo[3,4-d]pyrimidine] | 
0.1 to 10 | 0.1 to 10 | 0.1 to 10 | 0.1 to 10 | Cn1ncc2c(-c3ccc4[nH]cnc4c3)nc(N3CCOCC3)nc21 [Compound A129, 4-(1H-benzimidazol-5-yl)-1-methyl-6-morpholin-4-yl-1H-pyrazolo[3,4-d]pyrimidine] | 
0.1 to 10 | 0.1 to 10 | 0.1 to 10 | 0.1 to 10 | Cn1ncc2c(-c3cccc4[nH]ncc34)nc(N3CCOCC3)nc21 [Compound A161, 4-(1H-indazol-4-yl)-1-methyl-6-morpholin-4-yl-1H-pyrazolo-[3,4-d]pyrimidine] | 
0.1 to 10 | 0.1 to 10 | 0.1 to 10 | 0.1 to 10 | Cn1ncc2c(-c3ccc(N)nc3)nc(N3CCOCC3)nc21 [Compound A193, 5-(1-methyl-6-morpholin-4-yl-1H-pyrazolo[3,4-d]pyrimidin-4-yl)pyridin-2-ylamine] | 

Second part, the compound before the results:

SMILES | IC50 (PI3Kα) [µM] | IC50 (PI3Kβ) [µM] | IC50 (PI3Kγ) [µM] | IC50 (PI3Kδ) [µM] | IC50 (CK2 protein kinase) [µM]
Cn1ncc2c(-c3cccc(CO)c3)nc(N3CCOCC3)nc21 [Compound A33, [3-(1-methyl-6-morpholin-4-yl-1H-pyrazolo[3,4-d]pyrimidin-4-yl)phenyl]methanol] | 0.1 to 10 | 0.1 to 10 | 0.1 to 10 | 0.1 to 10 | 
Cn1ncc2c(-c3ccc4cc[nH]c4c3)nc(N3CCOCC3)nc21 [Compound A65, 4-(1H-indol-6-yl)-1-methyl-6-morpholin-4-yl-1H-pyrazolo-[3,4-d]pyrimidine] | > 10 | > 10 | 0.1 to 10 | > 10 | 
Nc1ccc(-c2nc(N3CCOCC3)nc3c2cnn3CC(=O)N2CCCC2)cn1 [Compound A196] | 0.1 to 10 | > 10 | > 10 | 0.1 to 10 | 
Cn1ncc2c(-c3cnc(N)nc3)nc(N3CCOCC3)nc21 [Compound A225, 5-(1-methyl-6-morpholin-4-yl-1H-pyrazolo[3,4-d]pyrimidin-4-yl)pyrimidin-2-ylamine] | 0.1 to 10 | 0.1 to 10 | 0.1 to 10 | 0.1 to 10 | 
Nc1ncc(-c2nc(N3CCOCC3)nc3c2cnn3CC(=O)N2CCCC2)cn1 [Compound A228] | 0.1 to 10 | 0.1 to 10 | 0.1 to 10 | 0.1 to 10 | 
Nc1ncc(-c2nc(N3CCOCC3)nc3c2cnn3CC(=O)N2CCOCC2)cn1 [Compound A229] | 0.1 to 10 | 0.1 to 10 | 0.1 to 10 | 0.1 to 10 | 
CN1CCN(C(=O)Cn2ncc3c(-c4cnc(N)nc4)nc(N4CCOCC4)nc32)CC1 [Compound A231] | 0.1 to 10 | 0.1 to 10 | 0.1 to 10 | 0.1 to 10 | 
O=c1cc(N2CCOCC2)oc2c(-c3ccccc3)cccc12 [LY294002] |  |  |  |  | 5 to 10
